Experimental findings from PubChem BioAssay (NCI) are described below.

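Results reflect a 48-hour exposure of cells in 96-well plates to compound at five concentrations. GI50: concentration for 50% inhibition of growth. Definition used: TGI = concentration required for complete inhibition of growth.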 Bounds are passed on as bounds.

Among the test systems are HL-60(TB) leukemia; K-562 leukemia; KM12 colon; MOLT-4 leukemia; NCI-H23 lung; OVCAR-5 ovarian; SK-MEL-2 melanoma; SW-620 colon; U251 CNS; TK-10 renal.
Common to all, as to assay: NCI-60 cell line screen, 48 h

On to `COC1CC(OS(=O)(=O)c2ccc(C)cc2)C(OS(=O)(=O)c2ccc(C)cc2)C(COS(=O)(=O)c2ccc(C)cc2)O1` (stereo unspecified), for which the TGI in the experiment with HL-60(TB) leukemia was more than 100 µM; in the experiment on K-562 leukemia, more than 100 µM; with KM12 colon, more than 100 µM; with MOLT-4 leukemia, more than 100 µM; with NCI-H23 lung, 15.6 µM; in the experiment on OVCAR-5 ovarian, 51.5 µM. The TGI stood at 20.1 µM with SK-MEL-2 melanoma, 57.7 µM in the experiment on SW-620 colon and 11.6 µM with U251 CNS.
On to `COc1ccc2nc(NC(=O)C(=O)CC(=O)c3ccc(Cl)cc3)sc2c1`, for which the TGI in the experiment on HL-60(TB) leukemia, with KM12 colon, in the experiment on MOLT-4 leukemia, in the experiment on NCI-H23 lung, in the experiment with SK-MEL-2 melanoma and in the experiment on SW-620 colon was more than 100 µM throughout. Besides, the TGI with TK-10 renal and in the experiment on U251 CNS was more than 100 µM each time.
As to `N#CC1(c2nc3ccccc3o2)C(=O)C(=O)N(c2ccc(Cl)c(Cl)c2)C(=O)C1=O`, the TGI in the experiment with HL-60(TB) leukemia, in the experiment on K-562 leukemia, with KM12 colon, in the experiment on MOLT-4 leukemia, in the experiment on NCI-H23 lung and with OVCAR-5 ovarian was more than 100 µM each time. For the same molecule, the TGI with SK-MEL-2 melanoma, in the experiment on SW-620 colon and in the experiment on TK-10 renal was more than 100 µM each time.
`Cc1nc(Nc2ccc(F)c(Cl)c2)sc1C(=O)O`: the GI50 is 3.41 µM in the experiment on HL-60(TB) leukemia; 2.65 µM in the experiment on K-562 leukemia; 1.7 µM in the experiment with OVCAR-5 ovarian; 1.97 µM in the experiment on SK-MEL-2 melanoma; 2.32 µM in the experiment on SW-620 colon; 1.96 µM in the experiment on TK-10 renal. Moreover, in the experiment on U251 CNS, the GI50 was 1.44 µM. The TGI in the experiment on HL-60(TB) leukemia is 8.17 µM; with K-562 leukemia, more than 100 µM; with OVCAR-5 ovarian it was 4.1 µM; with SK-MEL-2 melanoma, 3.8 µM; with SW-620 colon, 6.31 µM; in the experiment on TK-10 renal, 4.09 µM. The molecule further returned a TGI in the experiment on U251 CNS of 3.04 µM.
Turning to `Nc1ncc(-c2ccc(C(F)(F)F)cc2)c(NC2CCCCCC2)n1`, the GI50 with HL-60(TB) leukemia is 21.4 µM; in the experiment with K-562 leukemia, 21 µM; in the experiment with KM12 colon, 37.2 µM; in the experiment with MOLT-4 leukemia, 23.3 µM; in the experiment with NCI-H23 lung, 20 µM; with OVCAR-5 ovarian, 45.6 µM. Also, the GI50 with SW-620 colon is 39.3 µM; in the experiment with TK-10 renal it was 54.5 µM; in the experiment with U251 CNS it was 20.8 µM. The TGI in the experiment on HL-60(TB) leukemia was 63.6 µM; in the experiment on K-562 leukemia, more than 100 µM; in the experiment on KM12 colon, more than 100 µM; with MOLT-4 leukemia it was 81.5 µM; in the experiment with NCI-H23 lung, more than 100 µM; with OVCAR-5 ovarian it was more than 100 µM. Besides, the values for the TGI in the experiment on SW-620 colon, in the experiment on TK-10 renal and in the experiment with U251 CNS were more than 100 µM, more than 100 µM and 88.9 µM, respectively.
As to `CC[O-].CC[O-].O=Nc1ccc2cc([O-])ccc2c1.O=Nc1ccc2cc([O-])ccc2c1.[Ti+4]`, the GI50 in the experiment on HL-60(TB) leukemia was 1.2 µM; in the experiment on K-562 leukemia, 2.85 µM; with KM12 colon, 1.94 µM; with NCI-H23 lung, 1.46 µM; with OVCAR-5 ovarian, 2.36 µM; with SK-MEL-2 melanoma it was 2.13 µM. Moreover, the GI50 is 1.97 µM with SW-620 colon, 3.67 µM in the experiment with TK-10 renal and 1.77 µM in the experiment on U251 CNS. Also, the TGI was 3.71 µM in the experiment on HL-60(TB) leukemia; more than 100 µM with K-562 leukemia; 4.65 µM in the experiment on KM12 colon; 3.19 µM in the experiment on NCI-H23 lung; 3.84 µM in the experiment on OVCAR-5 ovarian; 4.75 µM in the experiment with SK-MEL-2 melanoma. Also, the values for the TGI with SW-620 colon, with TK-10 renal and in the experiment on U251 CNS were 4.06 µM, 8.17 µM and 3.48 µM, respectively.
For the molecule `CCc1nc2ccc(Cc3ccc(C(=O)NO)cc3)cc2c(=O)n1CCc1ccccc1`, the GI50 was 2.25 µM in the experiment with HL-60(TB) leukemia; 1.02 µM in the experiment on K-562 leukemia; 0.637 µM in the experiment on MOLT-4 leukemia; 1.11 µM in the experiment on NCI-H23 lung; 1.36 µM with OVCAR-5 ovarian; 1.62 µM in the experiment on SK-MEL-2 melanoma. Also, the GI50 in the experiment with SW-620 colon is 0.412 µM; in the experiment with TK-10 renal, 1.28 µM; with U251 CNS, 0.963 µM. For the same molecule, the TGI in the experiment with HL-60(TB) leukemia was 83.1 µM; in the experiment with K-562 leukemia it was more than 100 µM; in the experiment with MOLT-4 leukemia it was 16.7 µM; in the experiment on NCI-H23 lung, 3.89 µM; in the experiment with OVCAR-5 ovarian, 12.8 µM; in the experiment with SK-MEL-2 melanoma it was 3.95 µM. Moreover, the TGI with SW-620 colon was 2.23 µM; in the experiment with TK-10 renal, 2.89 µM; in the experiment with U251 CNS, 2.28 µM.
As to `O=C(Nc1cc(Cl)ccc1O)c1cccc(NC2=C(Cl)C(=O)N(Cc3ccccc3)C2=O)c1`, the GI50 with HL-60(TB) leukemia was 15.9 µM; in the experiment on K-562 leukemia, 15.2 µM; with KM12 colon, 21.4 µM; in the experiment on MOLT-4 leukemia, 3.24 µM; in the experiment with NCI-H23 lung, 16.1 µM; with OVCAR-5 ovarian, 45.8 µM. Further, the values for the GI50 in the experiment on SW-620 colon, in the experiment with TK-10 renal and in the experiment on U251 CNS were 21.3 µM, 37.3 µM and 18.2 µM, respectively. Also, the TGI in the experiment with HL-60(TB) leukemia was 38.7 µM; in the experiment on K-562 leukemia it was 38.5 µM; with KM12 colon, 52 µM; with MOLT-4 leukemia, 15.8 µM; with NCI-H23 lung it was 33.6 µM; in the experiment with OVCAR-5 ovarian, more than 100 µM. Besides, the TGI stood at 49.9 µM in the experiment with SW-620 colon, 95.5 µM in the experiment with TK-10 renal and 37.3 µM in the experiment on U251 CNS.
Consider `CC(=O)O[C@@H]1CC(C)C2CC2C2=C(C(O)OC2O)[C@@H]1C(C)CCC=C(C)C` (stereo partly specified), for which the TGI with HL-60(TB) leukemia is 43.1 µM; with K-562 leukemia, 66.9 µM; in the experiment with MOLT-4 leukemia, 54.5 µM; in the experiment on NCI-H23 lung, 55.4 µM; in the experiment on OVCAR-5 ovarian it was 35.1 µM; in the experiment with SK-MEL-2 melanoma, more than 100 µM. For the same molecule, the TGI in the experiment on SW-620 colon worked out at 51.2 µM; in the experiment on TK-10 renal it was 90 µM; with U251 CNS it was 41.1 µM.
On to `Cl.Fc1c[c-]c(-c2ccccn2)c(F)c1.[Pt].c1ccc([PH+](CC[PH+](c2ccccc2)c2ccccc2)c2ccccc2)cc1`, for which the GI50 in the experiment on HL-60(TB) leukemia is 0.0563 µM; with K-562 leukemia it was 0.0369 µM; in the experiment with KM12 colon, 0.0772 µM; in the experiment with MOLT-4 leukemia, 0.291 µM; in the experiment with OVCAR-5 ovarian, 0.178 µM; in the experiment with SK-MEL-2 melanoma it was 0.233 µM. Further, the GI50 was 0.157 µM with TK-10 renal and 0.0319 µM in the experiment on U251 CNS. Further, the TGI came out at 0.319 µM in the experiment with HL-60(TB) leukemia; 0.277 µM in the experiment on KM12 colon; 1.29 µM in the experiment on MOLT-4 leukemia; 0.919 µM in the experiment on OVCAR-5 ovarian; 0.756 µM in the experiment on SK-MEL-2 melanoma; 1.13 µM in the experiment on TK-10 renal. In the experiment on U251 CNS, this molecule came in with a TGI of 1.13 µM.
